According to patent US20120309798A1, “Tumour Treatment Agents and Method” (Vivolux AB, priority 2009, published 2012):
Read-outs that look alike come from different tables or passages of the source.

Assays:
Type in all cases: cell-based
Details in all cases: Homo sapiens
[1] = test system: AML (Acute Myelocytic Leukemia) patient tumor cells; experiment: FMCA, patient tumor samples, AML
From the text: (§1) Cell culture. Patient tumor samples (98) and preparations (4) of normal peripheral blood mononuclear cells (PBMC), detailed in Table 1, were used to determine the activity of VLX50 and, for comparison, six other cytotoxic drugs chosen to represent different mechanistic classes.
(§2) The tumor samples were obtained by bone marrow/peripheral blood sampling, routine surgery or diagnostic biopsy. Leukemic cells and PBMCs were isolated by 1.077 g ml-1 Ficoll-Paque centrifugation (Larsson et al., 1992). Tumor tissue from solid tumor samples was minced into small pieces and tumor cells were isolated by collagenase dispersion followed by Percoll density gradient centrifugation (Csoka et al., 1994). […] Cell viability was determined by trypan blue exclusion test and the proportion of tumor cells in the preparation was judged by inspection of May-Grunvald-Giemsa stained cytospin slides (FIG. 1a). […]
(§3) Fluorometric Microculture Cytotoxicity Assay. The Fluorometric Microculture Cytotoxicity Assay, FMCA, described in detail previously (Lindhagen et al., 2008), is based on measurement of fluorescence generated from hydrolysis of fluorescein diacetate (FDA) to fluorescein by cells with intact plasma membranes. […] Quality criteria for a successful assay included a mean coefficient of variation of less than 30% in the control and a fluorescence signal in control wells of more than 5 times the blank. […]

[2] = test system: CML (Chronic Myelocytic Leukemia) patient tumor cells; experiment: FMCA, patient tumor samples, CML
From the text: as §1, §2, §3

[3] = test system: Lung cancer patient tumor cells; experiment: FMCA, patient tumor samples, lung cancer
From the text: as §1, §2, §3

- IC50 ([1]; n=10, 72 h FMCA, read-out: Median IC50): 5.35 µM
- IC50 ([1]; range over n=10 samples, read-out: IC50 Range): 0.67 to 40 µM
- IC50 ([2]; n=3, 72 h FMCA, read-out: Median IC50): 5.13 µM
- IC50 ([2]; range over n=3 samples, read-out: IC50 Range): 2.1 to 6.42 µM
- IC50 ([3]; n=6, 72 h FMCA, read-out: Median IC50): 13.6 µM
- IC50 ([3]; range over n=6 samples, read-out: IC50 Range): 0.51 to 40 µM
Structure (SMILES): COCCCNC(=S)N/N=C\c1ccccn1 [VLX50, N1-(3-methoxypropyl)-2-(pyridylmethylidene)-hydrazine-1-carbothioamide]
